Test results from ChEMBL document CHEMBL1201862, “PubChem BioAssay data set” (2004).
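48-hour exposure; five concentrations; linearly interpolated endpoints. The concentration for 50% growth inhibition is given as GI50.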 Active and inactive are the calls of the source. No stated cut-off is given here; in the data, active = GI50 up to about 1.1 µM and inactive = higher.

Assays:
Assay in all cases: inhibition of tumour cell growth, NCI panel, 48 h
[1] = test system: SF-539
[2] = test system: HOP-92
[3] = test system: CAKI-1
[4] = test system: Hs-578T
[5] = test system: RPMI-8226
[6] = test system: SR
[7] = test system: U-251
[8] = test system: SK-MEL-5
[9] = test system: A549
[10] = test system: NCI-H460
[11] = test system: IGROV-1
[12] = test system: SN12C
[13] = test system: RXF 393
[14] = test system: MOLT-4
[15] = test system: ACHN
[16] = test system: SW-620
[17] = test system: OVCAR-8
[18] = test system: HOP-62
[19] = test system: HT-29

SMILES	GI50 [1]	GI50 [2]	GI50 [3]	GI50 [4]	GI50 [5]	GI50 [6]	GI50 [7]	GI50 [8]	GI50 [9]	GI50 [10]	GI50 [11]	GI50 [12]	GI50 [13]	GI50 [14]	GI50 [15]	GI50 [16]	GI50 [17]	GI50 [18]	GI50 [19]
CCOC(=O)CCC(NC(=O)c1ccc(Nc2nc3ccccc3nc2-c2cccs2)cc1)C(=O)OCC (stereo not given)	32.7 µM (inactive)	29.8 µM (inactive)	29.8 µM (inactive)	23 µM (inactive)	7.53 µM (inactive)	11.8 µM (inactive)	27.4 µM (inactive)	15.2 µM (inactive)	63.2 µM (inactive)	25.1 µM (inactive)	28 µM (inactive)	22.1 µM (inactive)	87.3 µM (inactive)	7.98 µM (inactive)	31 µM (inactive)	33.8 µM (inactive)	20.8 µM (inactive)	> 100 µM (inactive)	25.6 µM (inactive)
Cn1c(COC(=O)NC2CCCCC2)c(COC(=O)NC2CCCCC2)c2ccc3ccccc3c21	16 µM (inactive)	28.1 µM (inactive)	11 µM (inactive)	33.2 µM (inactive)	49.2 µM (inactive)	2.96 µM (inactive)	> 100 µM (inactive)	31.7 µM (inactive)	83.8 µM (inactive)	3.01 µM (inactive)	19.1 µM (inactive)		24 µM (inactive)	9.31 µM (inactive)	17.2 µM (inactive)	32.4 µM (inactive)	40.2 µM (inactive)	35 µM (inactive)	53.6 µM (inactive)
CCOC(=O)/C(=C\NC(C)(C)C)c1nc2ccccc2o1	47.4 µM (inactive)	33.5 µM (inactive)	60.4 µM (inactive)	28.3 µM (inactive)	22.2 µM (inactive)	25.6 µM (inactive)		12.8 µM (inactive)	42.4 µM (inactive)	25.7 µM (inactive)	51.9 µM (inactive)	50.1 µM (inactive)	24.7 µM (inactive)		27.6 µM (inactive)	49.7 µM (inactive)	39 µM (inactive)	> 100 µM (inactive)	27.7 µM (inactive)
N=c1oc2ccc(Cl)cc2cc1C(=O)NCc1ccccc1	> 100 µM (inactive)	28.9 µM (inactive)	> 100 µM (inactive)	30.5 µM (inactive)	> 89.3 µM (inactive)	> 57.1 µM (inactive)	> 86.3 µM (inactive)	> 100 µM (inactive)	> 100 µM (inactive)	> 100 µM (inactive)	> 100 µM (inactive)	> 100 µM (inactive)	17.8 µM (inactive)	31.2 µM (inactive)	> 91.8 µM (inactive)	> 100 µM (inactive)	> 100 µM (inactive)	> 87.3 µM (inactive)	> 100 µM (inactive)
O=C1C(Cl)=C(OCCCCl)C(=O)c2c(O)ccc(O)c21	3.01 µM (inactive)	1.78 µM (inactive)	1.21 µM (inactive)	4.91 µM (inactive)	1.37 µM (inactive)	0.0836 µM (active)	5.9 µM (inactive)	1.73 µM (inactive)	6.4 µM (inactive)	6.61 µM (inactive)	4.18 µM (inactive)	2.26 µM (inactive)	2.28 µM (inactive)	0.189 µM (active)	5.07 µM (inactive)	1.35 µM (inactive)	7.06 µM (inactive)	8.99 µM (inactive)	2.03 µM (inactive)
CC(=O)OC/C=C/[C@H](O[Si](C)(C)C(C)(C)C)[C@@H](O)/C=C/COC(C)=O	> 100 µM (inactive)	> 100 µM (inactive)	> 100 µM (inactive)	> 100 µM (inactive)	20.6 µM (inactive)	30.4 µM (inactive)	> 100 µM (inactive)	> 100 µM (inactive)	> 100 µM (inactive)	> 100 µM (inactive)	> 100 µM (inactive)	> 100 µM (inactive)	> 100 µM (inactive)	23.7 µM (inactive)	> 100 µM (inactive)	> 100 µM (inactive)	> 100 µM (inactive)	> 100 µM (inactive)	> 100 µM (inactive)
O/N=C1\CSc2ccccc2C1	> 100 µM (inactive)	59.4 µM (inactive)	90.2 µM (inactive)	41.8 µM (inactive)	> 100 µM (inactive)	94.4 µM (inactive)	> 100 µM (inactive)	> 100 µM (inactive)	> 100 µM (inactive)	> 100 µM (inactive)	> 100 µM (inactive)	> 100 µM (inactive)	72.3 µM (inactive)	> 100 µM (inactive)	> 100 µM (inactive)	> 100 µM (inactive)	> 100 µM (inactive)	> 100 µM (inactive)	> 100 µM (inactive)
